In patent publication US20230086099A1, “COMBINATION THERAPY FOR TREATMENT OF CANCER AND CANCER METASTASIS” (ONA Therapeutics, S.L., priority 2020, published 2023):

B1: ONA-0: anti-CD36 antibody ONA-0 (also known as ONA-0-v1; as described in U.S. Patent Application No. 63/117,529) (antibody)
heavy: QVQLKQSGADLVRPGASVKLSCKASGYTFTDYYINWVKQRPGQGLEWIARIYPGSGNTYYNEKFKGKATLTAEKSSSTAYMQLSSLTSEDSAVYFCARGIGGGFGMDYWGQGTSVTVSSESARNPTIYPLTLPPVLCSDPVIIGCLIHDYFPFGTMNVTWGKSGKDITTVNFPPALASGGRYTMSSQLTLPAVECPEGESVKCSVQHDSNPVQELDVNCSPTPPPPITIPSCQPSLSLQRPALEDLLLGSDASITCTLNGLRNPEGAAFTWEPSTGKDAVQKKAAQNSCGCYSVSSVLPGCAERWNSGASFKCTVTHPESGTLTGTIAKVTVNTFPPQVHLLPPPSEELALNELLSLTCLVRAFNPKEVLVRWLHGNEELSPESYLVFEPLKEPGEGATTYLVTSVLRVSAETWKQGDQYSCMVGHEALPMNFTQKTIDRLSGKPTNVSVSVIMSEGDGICY
light: SIVMTQTPKFLLVSAGDRITITCKASQSVSDDVAWYQQKPGQSPKLLIYYASNRYTGVPDRFTGSGYGTDFTFTISTVQAEDLAVYFCQQDYSSPLTFGAGTKLEIKRADAAPTVSIFPPSSEQLTSGGASVVCFLNNFYPKDINVKWKIDGSERQNGVLNSWTDQDSKDSTYSMSSTLTLTKDEYERHNSYTCEATHKTSTSPIVKSFNRNEC

Key:
[1] = system: OVCAR-3 cells; experiment: OVCAR-3 orthotopic mouse model of ovarian cancer; format: in vivo, NSG mice
Description: Studies of the effects of the combination of ONA-0 anti-CD36 antibody and cisplatin on ovarian cancer were performed in NSG mice (immuno-deficient). The studies included only female mice. All mice were inoculated with commercially available OVCAR-3 (ATCC) cancer cells. OVCAR-3 cells were derived from a human progressive adenocarcinoma of the ovary (i.e., from an ovarian cancer). Prior to inoculation, the OVCAR-3 cells were cultured in a humidified incubator at 37° C. with 5% CO2, and were grown in RPMI-1640 supplemented with 5 μg ml^−1 penicillin/streptomycin, 0.01 mg/ml bovine insulin and 20% FBS (GIBCO). For each mouse, a piece of an OVCAR-3 xenograft was implanted orthotopically. Treatment of the implanted mice began 23 days after implantation with the OVCAR-3 tumor pieces. Inoculated mice were divided into one of two treatment groups: cisplatin injection control (n=9) or cisplatin in combination with ONA-0 treatment (n=8). Antibody treatments were administered via intraperitoneal (i.p.) injection daily at a dose of 3 mg/kg and cisplatin treatments were administered via intraperitoneal (i.p.) injection twice per week at a dose of 2 mg/kg (FIG. 7B). Mice were sacrificed at the end of the treatment period. Upon sacrifice, organs and tissues were collected for performance of immunohistochemistry analysis.

[2] = system: Detroit oral cancer cells; experiment: Detroit oral cancer cells inoculated in NSG mice: anti-CD36 antibody with cisplatin; format: in vivo; settings: lung metastases from oral cancer, H&E staining of the lungs; FIGS. 2, 3A-3B
Description: (§1) Studies on the combination of anti-CD36 antibody with cisplatin were performed in NSG mice (immuno-deficient) males and females (first experiment mice directly bought, follow up experiments in house breeding) All mice were inoculated with commercially available oral cancer cells Ab dosing was always done daily i.p.
(§2) Two types of oral cancer cell lines were inoculated: • Detroit: “medium” metastatic and very large primary tumor • FaDu: “very strong” metastatic and small primary tumor
(§3) 50,000 or 100,000 cancer cells were inoculated. The starting time of treatment was the amount of days after inoculation of the cancer cells Ab treatment starts.

[3] = system: FaDu cell line (oral cancer cell line); experiment: FaDu oral cancer cells inoculated in NSG mice: lymph node metastases, ONA-0 with cisplatin; format: in vivo
Description: as §1, §2, §3

| Molecule | SR positive area (collagenous and fibrotic areas) of primary tumors ([1]; Sirius red staining, FIG. 9C) [%] | primary tumor weight, average ([1]; at sacrifice, FIG. 9B) [grams] | percent necrosis of primary tumors ([1]; histology, blinded quantification by a pathologist, FIG. 9C) | percentage of mice with metastasis in the liver ([1]; macroscopic, visual inspection, FIG. 8A) [%] | percentage of animals with metastasis in the peritoneal wall ([1]; macroscopic, visual inspection, ONA-0 3 mg/kg i.p. daily, cisplatin 2 mg/kg i.p. twice per week, FIG. 8A) [%] | lung metastases, size and number [2] | efficacy on lymph node metastases ([3]; study of FIGS. 4A-4E) | efficacy on lymph node metastasis ([3]; study of FIGS. 5A-5E and 6A-6B) |
| --- | --- | --- | --- | --- | --- | --- | --- | --- |
| N.N.[Cl][Pt][Cl] [cisplatin] | 27.45 | 0.468 | approximately 14.2% | 11 | 22 | reduces the size of metastases |  |  |
| B1 |  |  |  |  |  |  | demonstrates efficacy on lymph node metastases | effective as a monotherapy |
